Where a name gives a salt, the structure may show the parent alone. Read-outs that look alike come from different tables or passages of the source.
Assays:
[1] = Characteristic moisture absorption (Vapor Sorption Analyzer); type: physicochemical; settings: 25° C.; for Water taken up by the dehydrated sample: 0% R.H. to 95% R.H. and back to 10% R.H.
Method: Characteristic moisture absorption of the crystalline hydrochloride monohydrate [C-5] and the hydrochloride [C-4] which is in the form of an amorphous powder were measured with a Vapor Sorption Analyzer MB300G-3 (VTI Corporation).
In advance of measurement, the weighed samples put in the Analyzer were dehydrated at 60° C. under reduced pressure.

[2] = system: tonic convulsions after i.c.v. administration of NMDA; assay: Anti-convulsion test (NMDA i.c.v.); type: in vivo, mice; settings: 20 min before NMDA 5 nmol i.c.v.
Method: Twenty minutes after intravenous administration of the test compound (1 to 10 mg/kg) into each of ten mice tested, NMDA (5 nmol) was administered intracerebroventricularly (i.c.v.). […] The hydrochloride [C-4] at 10 mg/kg i.v. protected 90% of mice from tonic convulsions.

[3] = molecular target: T1, glycine binding site of the NMDA receptor (rat brain synaptic membrane) (Rattus norvegicus, UniProt P35439); assay: [3H]-DCKA binding test; settings: 10 nM [3H]-DCKA, 2° C., 10 min, pH 7.4; read-out: IC50, inhibition of [3H]-DCKA binding
T1 construct: A crude rat brain synaptic membrane preparation; from tissue; host or cells: rat brain synaptic membranes (Triton X-100 treated)
Method: A crude rat brain synaptic membrane preparation was washed three time with 50 mM Tris acetate buffer (pH 7.4) and centrifuged at 50,000×g for 30 min. The pellets obtained were suspended in 0.32M sucrose solution and stored at −80° C. For binding studies, the frozen suspension was thawed, treated with 0.08-0.10% triton X-100 at 2° C. for 10 min. The membrane suspension was washed twice and centrifuged at 50,000×g for 30 min. The synaptic membrane thus prepared (ca. 100 μg of protein) was incubated with 10 nM [^3H]-5,7-dichlorokynurenic acid (DCKA) and the test compound (10 to 0.1 ng/mL) at 2° C. for 10 min in 50 mM Tris acetate buffer (pH 7.4). The incubation was terminated by suction filtration using Whatman GF/B glass filter. The radioactivity bound to the membrane on the filter was measured by scintillation counting. Non-specific binding was calculated by the radioactivity measured under the incubations in the presence cf 0.1 mM glycine.

[4] = type: physicochemical; settings: for HPLC integrated intensity (%) under 75% R.H. / HPLC integrated intensity (%) in a sealed tube: 60° C.
Method: The hydrochloride monohydrate [C-5] was kept at a temperature of 60° C., in a sealed tube or under 75% R.H.(relative humidity) for 4 weeks. Thereafter, the remaining amount of the compound was assayed with high performance liquid chromatography (HPLC).

| IC50 [3] | HPLC integrated intensity (%) under 75% R.H. ([4]; 2 weeks) | HPLC integrated intensity (%) under 75% R.H. ([4]; 4 weeks) | HPLC integrated intensity (%) under 75% R.H. ([4]; Initial) | HPLC integrated intensity (%) in a sealed tube ([4]; 2 weeks) | HPLC integrated intensity (%) in a sealed tube ([4]; 4 weeks) | HPLC integrated intensity (%) in a sealed tube ([4]; Initial) | Water taken up, theoretical weight change for one molecular equivalent ([1]; moist atmosphere) | Compound | Water taken up by the dehydrated sample [1] | Mice protected from tonic convulsions ([2]; 10 mg/kg i.v., ten mice) | ED50 ([2]; Mus musculus, iv, mice, read-out: ED50, protection from tonic convulsions) | Increase of impurities or degradation products in HPLC charts [4] |
| --- | --- | --- | --- | --- | --- | --- | --- | --- | --- | --- | --- | --- |
| 1.4 nM |  |  |  |  |  |  |  | C[C@@H](Oc1cc(CN)ccc1NC(=O)C[C@@H]1CCc2cc(Cl)cc3[nH]c(C(=O)O)c1c23)C(=O)O [C-4, (3S)-7-Chloro-3-(2-((1R)-1-carboxyethoxy)-4-aminomethylphenyl)aminocarbonylmethyl-1,3,4,5-tetrahydrobenz[c.d]indole-2-carboxylic Acid Hydrochloride] | more than 2.5 molecular equivalents of water | 90% | 2.3 mg/kg |  |
|  | 99.2% | 99.5% | 99.3% | 99.3% | 99.6% | 99.3% | 3.45 wt % | C[C@@H](Oc1cc(CN)ccc1NC(=O)C[C@@H]1CCc2cc(Cl)cc3[nH]c(C(=O)O)c1c23)C(=O)O.Cl.O [C-5] | one |  |  | did not show any increase of impurities or degradation products |
| 16 nM |  |  |  |  |  |  |  | C[C@H](Oc1cc(CN)ccc1NC(=O)C[C@@H]1CCc2cc(Cl)cc3[nH]c(C(=O)O)c1c23)C(=O)O [D-2, (3S)-7-Chloro-3-(2-((1S)-1-carboxyethoxy)-4-aminomethylphenyl)aminocarbonylmethyl-1,3,4,5-tetrahydrobenz[c.d]indole-2-carboxylic Acid Hydrochloride, reference compound] |  |  |  |  |
